Like-named read-outs stand apart in the source and are kept apart here. Blank lines part the entries; values can stand above or below the molecule they belong to.
Molecular target: T1, purified human IDO protein (Homo sapiens, UniProt P14902)
T1 construct: 2 extra amino acids (linker from the BglII cloning site of pQE70); made in house; host or cells: E. coli M15(pREP4) with plasmid pQE70-hIDO
Assay: Enzymatic IDO assay (kynurenine production, absorbance at 480 nm)
Type: biochemical
Settings: values reported in ranges
Method: The inhibitors were initially diluted in DMSO at 100 mM and were diluted in potassium phosphate 50 mM, added to the reaction mixture at final concentrations raging from 1 mM to 5 nM and preincubated with the enzyme for 5 min at 25° C. The reaction was started by addition of L-tryptophan to 200 μM and incubated 15 min at 37° C. The reaction was stopped by addition of 0.5 vol of 30% trichloroacetic acid and incubated 30 min at 60° C. to hydrolyze N-formylkynurenine to kynurenine. The reaction was centrifuged at 3400 g for 5 min to remove precipitated protein and the supernatant was reacted with 2% (w/v) of p-dimethylaminobenzaldehyde in acetic acid. The reaction was incubated 10 min at 25° C. and read at 480 nm in a spectrophotometer. […] Nonlinear regressions and determination of the IC50 values were performed using the GraphPad Prism 4 software.

[1] = recombinant human IDO, read-out: hIDO IC50
[2] = hIDO IC50, recombinant human IDO

T1 sequence (P14902 whole entry P110S/E119G): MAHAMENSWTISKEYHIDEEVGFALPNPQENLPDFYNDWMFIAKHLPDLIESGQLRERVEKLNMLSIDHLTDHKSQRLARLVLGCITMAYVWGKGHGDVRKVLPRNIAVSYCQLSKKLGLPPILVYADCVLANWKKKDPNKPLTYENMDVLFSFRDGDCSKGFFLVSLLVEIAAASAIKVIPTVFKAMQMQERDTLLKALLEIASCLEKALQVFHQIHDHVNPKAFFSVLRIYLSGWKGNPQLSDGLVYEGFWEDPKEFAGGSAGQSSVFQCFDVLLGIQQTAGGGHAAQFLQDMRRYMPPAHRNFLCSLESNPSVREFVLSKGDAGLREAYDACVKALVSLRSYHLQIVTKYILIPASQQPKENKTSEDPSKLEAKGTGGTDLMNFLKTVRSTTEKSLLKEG

IC50 [1]: 10 to 100 µM
SMILES: O=C1CCCCN1c1ccc(CCOc2ccccc2-c2c[nH]cn2)cc1 [compound 1230, 1-(4-(2-(2-(1H-imidazol-4-yl)phenoxy)ethyl)phenyl)piperidin-2-one]

IC50 [1]: 1 to 10 µM
SMILES: O=C(O)c1ccccc1C(=O)Nc1ccc(CCOc2ccccc2-c2c[nH]cn2)cc1 [compound 1285, 2-((4-(2-(2-(1H-imidazol-4-yl)phenoxy)ethyl)phenyl)carbamoyl)benzoic acid]

IC50 [1]: 1 to 10 µM
SMILES: c1ccc(Nc2nc3ccc(CCOc4ccccc4-c4c[nH]cn4)cc3o2)cc1 [compound 1222, 6-(2-(2-(1H-imidazol-4-yl)phenoxy)ethyl)-N-phenylbenzo[d]oxazol-2-amine]

IC50 [1]: > 100 µM
SMILES: c1cnc2[nH]cc(-c3c[nH]cn3)c2c1 [compound 964, 3-(1H-imidazol-4-yl)-1H-pyrrolo[2,3-b]pyridine]

IC50 [1]: 10 to 100 µM
SMILES: Fc1ccc(-c2cnc[nH]2)cc1Cl [compound 1037, 5-(3-chloro-4-fluorophenyl)-1H-imidazole]

IC50 [1]: 1 to 10 µM
SMILES: Nc1ccc(CC(=O)Nc2ccc(CCOc3ccccc3-c3c[nH]cn3)cc2)cc1 [compound 1250, N-(4-(2-(2-(1H-imidazol-4-yl)phenoxy)ethyl)phenyl)-2-(4-aminophenyl)acetamide]

IC50 [1]: 1 to 10 µM
SMILES: O=C(Cc1ccccc1)Nc1ccc(CCOc2ccccc2-c2c[nH]cn2)cn1 [compound 1228, N-(5-(2-(2-(1H-imidazol-4-yl)phenoxy)ethyl)pyridin-2-yl)-2-phenylacetamide]

IC50 [1]: < 1 µM
SMILES: NC(C(=O)Nc1ccc(CCOc2ccccc2-c2c[nH]cn2)c(Cl)c1)C1CCOCC1 (stereo not drawn) [compound 1333, N-(4-(2-(2-(1H-imidazol-4-yl)phenoxy)ethyl)-3-chlorophenyl)-2-amino-2-(tetrahydro-2H-pyran-4-yl)acetamide]

IC50 [1]: < 1 µM
SMILES: O=C(Nc1ccc(CCOc2ccccc2-c2c[nH]cn2)cc1)Nc1ccccc1[N+](=O)[O-] [compound 1192, 1-(4-(2-(2-(1H-imidazol-4-yl)phenoxy)ethyl)phenyl)-3-(2-nitrophenyl)urea]

IC50 [1]: 1 to 10 µM
SMILES: NC1CCCCC1NC(=O)Nc1ccc(CCOc2ccccc2-c2c[nH]cn2)cc1 (stereo not drawn) [compound 1216, 1-(4-(2-(2-(1H-imidazol-4-yl)phenoxy)ethyl)phenyl)-3-(2-aminocyclohexyl)urea]

IC50 [1]: 10 to 100 µM
SMILES: CC(C)(C)CC(=O)N1CCC(CCOc2ccccc2-c2c[nH]cn2)CC1 [compound 1143, 1-(4-(2-(2-(1H-imidazol-4-yl)phenoxy)ethyl)piperidin-1-yl)-3,3-dimethylbutan-1-one]

IC50 [1]: 10 to 100 µM
SMILES: c1ccc2[nH]c(-c3c[nH]cn3)cc2c1 [compound 975, 2-(1H-imidazol-4-yl)-1H-indole]

IC50 [1]: 10 to 100 µM
SMILES: CCOC(=O)/C=C/c1ccccc1-c1c[nH]cn1 [compound 1014, (E)-ethyl 3-(2-(1H-imidazol-4-yl)phenyl)acrylate]

IC50 [1]: < 1 µM
SMILES: O=C(Cc1cncnc1)Nc1ccc(CCOc2ccccc2-c2c[nH]cn2)c(Cl)c1 [compound 1366, N-(4-(2-(2-(1H-imidazol-4-yl)phenoxy)ethyl)-3-chlorophenyl)-2-(pyrimidin-5-yl)acetamide]

IC50 [1]: 10 to 100 µM
SMILES: Clc1ccc(CCOc2ccccc2-c2c[nH]cn2)cn1 [compound 1218, 5-(2-(2-(1H-imidazol-4-yl)phenoxy)ethyl)-2-chloropyridine]

IC50 [1]: 10 to 100 µM
SMILES: c1ccc(-c2c[nH]cn2)c(OCCc2ccsc2)c1 [compound 1203, 4-(2-(2-(thiophen-3-yl)ethoxy)phenyl)-1H-imidazole]

IC50 [1]: 10 to 100 µM
SMILES: CC(COc1ccccc1-c1c[nH]cn1)c1ccccc1 (stereo not drawn) [compound 978, 4-(2-(2-phenylpropoxy)phenyl)-1H-imidazole]

IC50 [1]: 10 to 100 µM
SMILES: O=C(COc1ccccc1-c1c[nH]cn1)c1cccc(Br)c1 [compound 953, 2-(2-(1H-imidazol-4-yl)phenoxy)-1-(3-bromo-phenyl)ethanone]

IC50 [1]: 10 to 100 µM
SMILES: c1ccc(OCc2cccc(-c3c[nH]cn3)c2)cc1 [compound 996, 4-(3-(phenoxymethyl)phenyl)-1H-imidazole]

IC50 [1]: > 100 µM
SMILES: c1nc(-c2ccc3c(c2)OCCO3)c[nH]1 [compound 971, 4-(2,3-dihydrobenzo[b][1,4]dioxin-6-yl)-1H-imidazole]

The remaining lines, values behind:

SMILES: Oc1c(-c2cnc[nH]2)ccc(F)c1Cl [compound 1129, 2-chloro-3-fluoro-6-(1H-imidazol-5-yl)phenol]
IC50 [1]: 10 to 100 µM

SMILES: O=C1NCCN1C(=O)Oc1ccc(Cl)cc1-c1c[nH]cn1 [compound 1147, 4-chloro-2-(1H-imidazol-4-yl)phenyl 2-oxoimidazolidine-1-carboxylate]
IC50 [2]: 1 to 10 µM

SMILES: c1ccc(-c2c[nH]cn2)c(OCCc2ccc(N3CCCCC3)cc2)c1 [compound 1223, 1-(4-(2-(2-(1H-imidazol-4-yl)phenoxy)ethyl)phenyl)piperidine]
IC50 [1]: 10 to 100 µM

SMILES: c1csc(-c2ccc(CCOc3ccccc3-c3c[nH]cn3)cc2)c1 [compound 1200, 4-(2-(4-(thiophen-2-yl)phenethoxy)phenyl)-1H-imidazole]
IC50 [1]: 10 to 100 µM

SMILES: O=C(Cc1cccs1)N1CCC(CCOc2ccccc2-c2c[nH]cn2)CC1 [compound 1176, 1-(4-(2-(2-(1H-imidazol-4-yl)phenoxy)ethyl)piperidin-1-yl)-2-(thiophen-2-yl)ethanone]
IC50 [1]: 1 to 10 µM

SMILES: Oc1cccc(OCCCc2ccccc2)c1-c1cnc[nH]1 [compound 1010, 2-(1H-imidazol-5-yl)-3-(3-phenylpropoxy) phenol]
IC50 [1]: 10 to 100 µM

SMILES: Ic1ccccc1-c1cnc[nH]1 [compound 1119, 5-(2-iodophenyl)-1H-imidazole]
IC50 [1]: 10 to 100 µM

SMILES: C=CCn1cncc1-c1ccccc1 [compound 1131, 1-allyl-5-phenyl-1H-imidazole]
IC50 [1]: > 100 µM

SMILES: C=C(COc1ccccc1-c1c[nH]cn1)c1coc2ccccc12 [compound 1030, 4-(2-(2-(benzofuran-3-yl)allyloxy)phenyl)-1H-imidazole]
IC50 [1]: 1 to 10 µM

SMILES: CC(C)(C)COC(=O)N1CCC(CCOc2ccccc2-c2c[nH]cn2)CC1 [compound 1149, neopentyl 4-(2-(2-(1H-imidazol-4-yl)phenoxy)ethyl)piperidine-1-carboxylate]
IC50 [1]: 10 to 100 µM

SMILES: Oc1cccc(OCCC2CC=CCC2)c1-c1cnc[nH]1 (stereo not drawn) [compound 1182, 3-(2-(cyclohex-3-en-1-yl)ethoxy)-2-(1H-imidazol-5-yl)phenol]
IC50 [1]: 1 to 10 µM

SMILES: c1ccc2c(-c3cnc[nH]3)cccc2c1 [compound 957, 5-(naphthalen-1-yl)-1H-imidazole]
IC50 [1]: 10 to 100 µM

SMILES: c1cnc(-c2c[nH]cn2)nc1 [compound 972, 2-(1H-imidazol-4-yl)pyrimidine]
IC50 [1]: > 100 µM

SMILES: Nn1cncc1-c1ccccc1 [compound 1115, 5-phenyl-1H-imidazol-1-amine]
IC50 [1]: > 100 µM

SMILES: Oc1ccc(Cl)cc1-c1cnc2cnccn12 [compound 1038, 4-chloro-2-(imidazo[1,2-a]pyrazin-3-yl)phenol]
IC50 [1]: > 100 µM

SMILES: Oc1c(-c2c[nH]cn2)cc(Cl)c2cccnc12 [compound 956, 5-chloro-7-(1H-imidazol-4-yl)quinolin-8-ol]
IC50 [1]: > 100 µM

SMILES: c1ccc(-c2c[nH]cn2)c(OCCc2csc3ccccc23)c1 [compound 1202, 4-(2-(2-(benzo[b]thiophen-3-yl)ethoxy)phenyl)-1H-imidazole]
IC50 [1]: 10 to 100 µM

SMILES: Fc1cccc(-c2c[nH]cn2)c1OCCc1ccccc1Cl [compound 1296, 4-(2-(2-chlorophenethoxy)-3-fluorophenyl)-1H-imidazole]
IC50 [1]: 10 to 100 µM

SMILES: O=C(Nc1ccccc1)Nc1ccc(CCOc2ccccc2-c2c[nH]cn2)cn1 [compound 1224, 1-(5-(2-(2-(1H-imidazol-4-yl)phenoxy)ethyl)pyridin-2-yl)-3-phenylurea]
IC50 [1]: 1 to 10 µM

SMILES: O=S(=O)(Cc1ccccc1)Nc1ccc(CCOc2ccccc2-c2c[nH]cn2)cc1 [compound 1151, N-(4-(2-(2-(1H-imidazol-4-yl)phenoxy)ethyl)phenyl)-1-phenylmethanesulfonamide]
IC50 [1]: 1 to 10 µM

SMILES: O=C(Nc1ccc(CCOc2ccccc2-c2c[nH]cn2)cc1)c1ccc[nH]c1=O [compound 1204, N-(4-(2-(2-(1H-imidazol-4-yl)phenoxy)ethyl)phenyl)-2-oxo-1,2-dihydropyridine-3-carboxamide]
IC50 [1]: 1 to 10 µM

SMILES: COc1cc(F)c(Cl)cc1-c1cnc[nH]1 [compound 1051, 5-(5-chloro-4-fluoro-2-methoxyphenyl)-1H-imidazole]
IC50 [1]: > 100 µM

SMILES: Oc1c(Cl)cc(Cl)c(OCCc2ccccc2Cl)c1-c1cnc[nH]1 [compound 1111, 4,6-dichloro-3-(2-chlorophenethoxy)-2-(1H-imidazol-5-yl)phenol]
IC50 [1]: 10 to 100 µM

SMILES: CN1CCN(C(=O)Oc2ccc(Cl)cc2-c2c[nH]cn2)CC1 [compound 1112, 4-chloro-2-(1H-imidazol-4-yl)phenyl 4-methylpiperazine-1-carboxylate]
IC50 [2]: 10 to 100 µM

SMILES: c1ccc(-c2c[nH]cn2)c(OCCC2CCCO2)c1 (stereo not drawn) [compound 1213, 4-(2-(2-(tetrahydrofuran-2-yl)ethoxy)phenyl)-1H-imidazole]
IC50 [1]: 10 to 100 µM

SMILES: Oc1cc(F)ccc1-c1cnc[nH]1 [compound 1120, 5-fluoro-2-(1H-imidazol-5-yl)phenol]
IC50 [1]: 10 to 100 µM

SMILES: O=C(O)c1ccc(C(=O)Nc2ccc(CCOc3ccccc3-c3c[nH]cn3)cc2)cc1 [compound 1270, 4-((4-(2-(2-(1H-imidazol-4-yl)phenoxy)ethyl)phenyl)carbamoyl)benzoic acid]
IC50 [1]: 1 to 10 µM

SMILES: c1cnc2c(-c3c[nH]cn3)cccc2c1 [compound 952, 8-(1H-imidazol-4-yl)quinoline]
IC50 [1]: > 100 µM
